Experimental data reported in patent US10710986B2, “PD-1/PD-L1 inhibitors” (Gilead Sciences, Inc., priority 2018, dated 2020).

Target: PD-1/PD-L1 (Homo sapiens (Human), UniProt Q9NZQ7)
Experiment: PD-1/PD-L1 biochemical protein-protein interaction assay (ALPHA)
Conditions: 0.3 nM His tagged PD-L1, 2.5 nM biotinylated Fc-PD-1, 60 minutes at 25° C., read-out: IC50 PD-L1-PD1
Method: Binding of the protein pairs is measured using a bead based Amplified Luminescent Proximity Homogeneous Assay (ALPHA) platform. Binding of each protein pair results in proximity of the donor and acceptor beads which leads to an increase in ALPHA signal. […] Assays are performed in 25 mM Hepes (pH 7.4), 150 mM NaCl, 3.4 mM EDTA, 0.005% Tween 20, and 0.01% BSA. […] After an assay reaction time of 60 minutes at 25° C., binding was measured with addition of 20 μg/mL ALPHA assay acceptor beads (anti-His coated) and 20 µg/mL ALPHA assay donor beads (streptavidin coated). IC50 values were calculated from the fit of the dose-response curves to a four-parameter equation.

Sequence of PD-1/PD-L1 (Q9NZQ7 19-238): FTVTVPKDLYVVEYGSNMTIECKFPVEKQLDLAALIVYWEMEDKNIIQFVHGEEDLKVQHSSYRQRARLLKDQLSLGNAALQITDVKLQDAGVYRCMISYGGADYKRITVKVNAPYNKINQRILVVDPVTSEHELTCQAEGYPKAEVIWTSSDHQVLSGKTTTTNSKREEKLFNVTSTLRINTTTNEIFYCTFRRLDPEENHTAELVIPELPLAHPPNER

IC50 [nM] | Structure (SMILES)
0.064 | COc1nc(-c2cccc(-c3cccc(-c4cnc(C5=NC[C@H](C)N5)c(OC)n4)c3Cl)c2Cl)cnc1C1=NC[C@H](C)N1 [compound 121]
1.69 | COc1cc(-c2cccc(-c3cccc(-c4cnc(CN)c(OC)n4)c3Cl)c2Cl)ccc1CN [compound 122]
0.112 | COc1cc(-c2cccc(-c3cccc(-c4cnc(CN5CC6(CNC(=O)C6)C5)c(OC)n4)c3Cl)c2Cl)ccc1CN1CC2(CNC(=O)C2)C1 [compound 123]
0.225 | COc1cc(-c2cccc(-c3cccc(-c4cnc(CNC[C@@H]5CCC(=O)N5)c(OC)n4)c3Cl)c2Cl)ccc1CNC[C@@H]1CCC(=O)N1 [compound 125]
0.272 | COc1nc(-c2cccc(-c3cccc(-c4cnc(CNC[C@@H]5CCC(=O)N5)c(OC)n4)c3Cl)c2Cl)ccc1CNC[C@@H]1CCC(=O)N1 [compound 126, (S)-5-((((6-(2,2′-dichloro-3′-(6-methoxy-5-(((((S)-5-oxopyrrolidin-2-yl)methyl)amino)methyl)pyrazin-2-yl)-[1,1′-biphenyl]-3-yl)-2-methoxypyridin-3-yl)methyl)amino)methyl)pyrrolidin-2-one]
0.185 | COc1nc(-c2cccc(-c3cccc(-c4cnc(CN5CC[C@@H](O)C5)c(OC)n4)c3Cl)c2Cl)cnc1CN1CC[C@@H](O)C1 [compound 130]
0.147 | COc1nc(-c2cccc(-c3cccc(-c4cnc(CN5CC6(CCC(=O)N6)C5)c(OC)n4)c3Cl)c2Cl)cnc1CN1CC2(CCC(=O)N2)C1 [compound 136]
0.168 | COc1nc(-c2cccc(-c3cccc(-c4cnc(CNC[C@@H](O)CC(=O)O)c(OC)n4)c3Cl)c2Cl)cnc1CNC[C@@H](O)CC(=O)O [compound 137]
0.064 | COc1nc(-c2cccc(-c3cccc(-c4cnc(C5=NCCN5)c(OC)n4)c3Cl)c2Cl)cnc1C1=NCCN1 [compound 141]
0.41 | COc1nc(-c2cccc(-c3cccc(-c4cnc(CN[C@@H]5CCOC5)c(OC)n4)c3Cl)c2Cl)cnc1CN[C@@H]1CCOC1 [compound 143]
0.06 | COc1nc(-c2cccc(-c3cccc(-c4cnc(CN5CC(C)(O)C5)c(OC)n4)c3Cl)c2Cl)cnc1CN1CC(C)(O)C1 [compound 147]
0.06 | COc1nc(-c2cccc(-c3cccc(-c4cnc(CN5CC(C)(CO)C5)c(OC)n4)c3Cl)c2Cl)cnc1CN1CC(C)(CO)C1 [compound 148]
0.27 | COc1nc(-c2cccc(-c3cccc(-c4cnc(CN[C@H]5C[C@H](CO)C5)c(OC)n4)c3Cl)c2Cl)cnc1CN[C@H]1C[C@H](CO)C1 [compound 149]
0.073 | COc1nc(-c2cccc(-c3cccc(-c4ccc(CNC[C@@H]5CCC(=O)N5)c(C#N)c4)c3Cl)c2Cl)cnc1CNC[C@@H]1CCC(=O)N1 [compound 152]

More lines, now with the values behind:

Structure (SMILES) | IC50 [nM]
COc1nc(-c2cccc(-c3cccc(-c4cnc(CNC[C@@H]5CCC(=O)N5)c(OC)n4)c3Br)c2Br)cnc1CNC[C@@H]1CCC(=O)N1 [compound 113] | 0.211
COc1nc(-c2cccc(-c3cccc(-c4cnc(CN5CC6(CNC(=O)C6)C5)c(OC)n4)c3Cl)c2Cl)ccc1C1=NCCN1 [compound 114] | 0.064
COc1nc(-c2cccc(-c3cccc(-c4cnc(CN5CC6(CCC(=O)N6)C5)c(OC)n4)c3Cl)c2Cl)ccc1C1=NCCN1 [compound 115] | 0.115
COc1nc(-c2cccc(-c3cccc(-c4cnc(CN5CC(O)C5)c(OC)n4)c3Cl)c2Cl)ccc1C1=NCCN1 [compound 116] | 0.064
COc1nc(-c2cccc(-c3cccc(-c4cnc(CNC[C@@H]5CCC(=O)N5)c(OC)n4)c3Cl)c2Cl)ccc1C1=NCCN1 [compound 117] | 0.281
COc1nc(-c2cccc(-c3cccc(-c4cnc(CN5CC(F)C5)c(OC)n4)c3Cl)c2Cl)cnc1CN1CC(F)C1 [compound 118] | 0.715
COc1nc(-c2cccc(-c3cccc(-c4cnc(C5=NCC(F)(F)CN5)c(OC)n4)c3Cl)c2Cl)cnc1C1=NCC(F)(F)CN1 [compound 119] | 0.115
COc1nc(-c2cccc(-c3cccc(-c4cnc(CN5CC6(CNC(=O)C6)C5)c(OC)n4)c3Cl)c2Cl)cnc1CN1CC2(CNC(=O)C2)C1 [compound 120] | 0.32
COc1cc(-c2cccc(-c3cccc(-c4cnc(CN5CC6(CCC(=O)N6)C5)c(OC)n4)c3Cl)c2Cl)ccc1CN1CC2(CCC(=O)N2)C1 [compound 124] | 0.19
COc1nc(-c2cccc(-c3cccc(-c4cnc(C5=NCC(C)(C)N5)c(OC)n4)c3Cl)c2Cl)cnc1C1=NCC(C)(C)N1 [compound 127] | 0.064
COc1nc(-c2cccc(-c3cccc(-c4cnc(C5=NCC(O)CN5)c(OC)n4)c3Cl)c2Cl)cnc1C1=NCC(O)CN1 (centres unmarked) [compound 128] | 0.557
COc1nc(-c2cccc(-c3cccc(-c4cnc(C5=NC[C@@H](C)N5)c(OC)n4)c3Cl)c2Cl)cnc1C1=NC[C@@H](C)N1 [compound 129] | 0.064
COc1nc(-c2cccc(-c3cccc(-c4cnc(CN5CC(O)C5)c(OC)n4)c3Cl)c2Cl)cnc1CN1CC(O)C1 [compound 131] | 0.309
COc1nc(-c2cccc(-c3cccc(-c4cnc(CN5CC[C@H](O)C5)c(OC)n4)c3Cl)c2Cl)cnc1CN1CC[C@H](O)C1 [compound 132] | 0.753
COc1nc(-c2cccc(-c3cccc(-c4cnc(C5=NC[C@H](CO)N5)c(OC)n4)c3Cl)c2Cl)cnc1C1=NC[C@H](CO)N1 [compound 133] | 0.064
COc1nc(-c2cccc(-c3cccc(-c4cnc(C5=NC[C@@H](CO)N5)c(OC)n4)c3Cl)c2Cl)cnc1C1=NC[C@@H](CO)N1 [compound 134] | 0.064
COc1nc(-c2cccc(-c3cccc(-c4cnc(CN)c(OC)n4)c3Cl)c2Cl)cnc1CN [compound 135] | 0.733
COc1nc(-c2cccc(-c3cccc(-c4cnc(CNCCO)c(OC)n4)c3Cl)c2Cl)cnc1CNCCO [compound 140] | 0.26
COc1nc(-c2cccc(-c3cccc(-c4cnc(CN5CC[C@](C)(O)C5)c(OC)n4)c3Cl)c2Cl)cnc1CN1CC[C@](C)(O)C1 [compound 142] | 0.2
COc1nc(-c2cccc(-c3cccc(-c4cnc(CN[C@H]5CCOC5)c(OC)n4)c3Cl)c2Cl)cnc1CN[C@H]1CCOC1 [compound 144] | 0.24
COc1nc(-c2cccc(-c3cccc(-c4cnc(CN5CC(CO)C5)c(OC)n4)c3Cl)c2Cl)cnc1CN1CC(CO)C1 [compound 145] | 0.1
COc1nc(-c2cccc(-c3cccc(-c4cnc(CN5CCC(C)(O)C5)c(OC)n4)c3Cl)c2Cl)cnc1CN1CCC(C)(O)C1 (centres unmarked) [compound 146] | 0.13
COc1nc(-c2cccc(-c3cccc(-c4cnc(CN[C@H]5C[C@@H](CO)C5)c(OC)n4)c3Cl)c2Cl)cnc1CN[C@H]1C[C@@H](CO)C1 [compound 150] | 0.2
COc1nc(-c2cccc(-c3cccc(-c4ccc(CN5CC6(CCC(=O)N6)C5)c(C#N)c4)c3Cl)c2Cl)cnc1CNC[C@@H]1CCC(=O)N1 [compound 151] | 0.684
COc1nc(-c2cccc(-c3cccc(-c4ccc(CN5CC(O)C5)c(C#N)c4)c3Cl)c2Cl)cnc1CNC[C@@H]1CCC(=O)N1 [compound 153] | 0.396
COc1nc(-c2cccc(-c3cccc(-c4ccc(CN5CC(C)(CO)C5)c(C#N)c4)c3Cl)c2Cl)cnc1CNC[C@@H]1CCC(=O)N1 [compound 154] | 0.126
COc1nc(-c2cccc(-c3cccc(-c4cnc(CNC[C@@H]5CCC(=O)N5)c(OC)n4)c3Cl)c2Cl)ccc1CNCc1ccc2[nH]c(C)cc2c1 [compound 155] | 1.65
